Laboratory results as given in patent US20230364419A1, “USE OF E[…] ENHANCE THE DELIVERY OF PHARMACEUTICAL AGENTS AND OTHER […] THE SURFACE MUCOSA AND WALL OF THE URETER AND RENAL PELVIS, AND INTO THE RENAL PARENCHYMA” (priority 2022, published 2023).
Entries after “also recorded” stand apart in the source; their conditions may differ.

Experiments:
[1] = Methylene blue infusion into the renal pelvis with or without EMDA activation; type: in vivo
Procedure: In another example, cystoscopy was used to place a 0.035 in. guidewire into the ureter and pass it up into the renal pelvis. The cystoscope is removed and a 5 to 15 Fr pigtail catheter is advanced over the guidewire; the guidewire is removed. A retrograde pyelogram is performed and the fluid is then drained from the renal pelvis and measured in order to obtain the volume of the renal pelvis. The guidewire is replaced and the pigtail catheter is removed and the EMDA delivery catheter is advanced over the guidewire into the ureter. A fluoroscopic image is obtained to confirm the correct position of the catheter with the proximal tip inside the renal pelvis. The guidewire is removed and the catheter assumes its nonintubated “C” shape along its proximal end; the silver wire is passed into the EMDA catheter (alternatively a pre-assembled catheter will be deployed via a preplaced ureteral access sheath) following the “C” shape of the distal end of the catheter.
For renal pelvis EMDA, an electrical current of 4 mA (using a dedicated EMDA generator) is used in the C-shape catheter to achieve a current density of less than 0.5 mA/cm^2. This value is obtained based on prior work in the bladder with regard to the safety and efficacy of EMDA; the collecting system surface (8 cm^2) was multiplied by 0.5 mA/cm^2. A pulsed current is used during EMDA; however, direct current is also applicable.

[2] = Porcine ureteral EMDA proof-of-concept study: methylene blue infused through the ureteral catheter with or without current; type: in vivo, Yorkshire pigs; conditions: for microscopic penetration of methylene blue into the ureteral wall (frozen section / histopathology): 20 min, infusion 5 ml/min
From the text: Cystoscopy is used to place a 0.035 in. guidewire into the ureter and up into the renal pelvis. The cystoscope is removed and the EMDA delivery catheter is advanced over the 0.035-inch super-stiff guidewire into the ureter up to the level of the ureteropelvic junction (i.e., not into the renal pelvis). A fluoroscopic image is obtained to confirm the correct position of the catheter in the ureter with the proximal tip just inside the renal pelvis. The 0.035 in. guidewire is removed and the silver wire is passed into the EMDA catheter. The circumference of the tip of silver wire (connected to positive electrode of EMDA generator) is larger than the exit hole in the distal tip of the EMDA catheter and thus its passage stops at the catheter’s tip and occludes the end-hole, thereby preventing any flow of instilled fluid from the tip of the catheter. A dispersing electrode (negative) is placed on the flank area. The EMDA is then activated and the fluid containing the intended medication is instilled at 5 ml/min via a drug infusion pump for 20 minutes.
An electrical current of 10 mA is used to achieve a current density of less than 0.5 mA/cm^2. This value was obtained based on prior work in other areas with regard to the safety and efficacy of EMDA. The ureteral surface was multiplied [20 cm (length)×(circumference≈1 cm) ≈20 cm^2] by 0.5 mA/cm^2. A pulsed or direct current can be used during EMDA.
As proof of concept, a porcine study was performed (IACUC approved protocol: 21-131). A charged molecule, methylene blue, was instilled which is suitable for EMDA because of its net positive charge, small molecular size, and strong blue color. Via the EMDA catheter, a pulsed electrical current of 10 mA was applied for 20 minutes during instillation of the methylene blue solution The pigs were then euthanized and both ureters were harvested. Visually, the difference in the color density in the experimental (EMDA ureter) and control ureter (without EMDA) was apparent.
Two Yorkshire pigs were placed under general anesthesia. Cystoscopy was used to place a 0.035 in. super-stiff™ guidewire into each ureter. A prefabricated ureteral catheter with equidistant (5 mm) fenestrations in three rows was advanced into each ureter. A silver wire was then passed into each ureteral catheter; the circumference of the silver wire was larger than the terminal opening in the catheter such that its passage stopped at the catheter’s tip, thereby preventing any flow of instilled fluid from the tip of the catheter. Methylene blue, a heterocyclic aromatic dye with a net positive charge, was infused through each catheter at a rate of 5 ml/min. In the experimental ureter, a positive pulsed electrical current of 10 mA was applied using a Physionizer® EDMA device. […]

CN(C)c1ccc2nc3ccc(=[N+](C)C)cc-3sc2c1 [methylene blue]
macroscopic staining of the renal pelvis ([1]; with EMDA activation): Intense staining of the renal pelvis
microscopic staining of urothelium and submucosa of the renal pelvis ([1]; with EMDA activation): Deep blue staining of urothelium and the submucosa of the renal pelvis
tissue injury of the renal pelvis (H&E staining) ([1]; with EMDA activation): normal architecture with no signs of acute injury
macroscopic staining of the renal pelvis ([1]; without EMDA activation): Faint staining of the renal pelvis
microscopic staining of urothelium and submucosa of the renal pelvis ([1]; without EMDA activation): Blue staining of urothelium with less intensity and negligible methylene blue staining the submucosa of the renal pelvis
tissue injury of the renal pelvis (H&E staining) ([1]; without EMDA activation): normal architecture with no evidence of injury
microscopic penetration of methylene blue into the ureteral wall (frozen section / histopathology) ([2]; control ureter, without EMDA): only patchy staining of the urothelium; also recorded: minimal, patchy staining of the urothelial lining with negligible penetration of methylene blue beyond the urothelium; also recorded: patchy methylene blue staining was seen only on the urothelium with negligible deeper penetration
microscopic penetration of methylene blue into the ureteral wall (frozen section / histopathology) ([2]; experimental ureter, with EMDA, pulsed current 10 mA): could be delivered beyond the urothelium and deeply into the wall of the ureter; also recorded: dense blue staining of the urothelium; also recorded: penetration of methylene blue throughout the wall of the EMDA treated ureter; also recorded: diffuse penetration of methylene blue into the urothelium, lamina propria, muscularis propria, and periureteral tissue
macroscopic staining of the interior surface of the ureter ([2]; with EMDA): intense staining of the experimental ureter
macroscopic staining of the interior surface of the ureter ([2]; without EMDA): minimal staining of the urothelial lining
